Test results taken from the supplement of paper PMC8882468.

test system: HCI-002 (organoid from a triple-negative breast cancer xenograft); test: CTG-3D luminescence at 96 h relative to day-0 seeding control (ratio to day 0); higher = more growth / less cytotoxicity; PDxO 3D drug screen, 96 h, CTG-3D normalised to day-0 seeding control.; details: 100 µM; days in culture: 209

In order of rising “CTG-3D luminescence at 96 h” value:
1. O=C(c1ccc(F)c(F)c1Nc1ccc(I)cc1F)N1CC(O)([C@@H]2CCCCN2)C1 [cobimetinib]  -0.00565
2. COc1cc2c(Oc3ccc4[nH]c(C)cc4c3F)ncnc2cc1OCCCN1CCCC1 [cediranib]  -0.000945
3. CC(C)n1nc(-c2ccc3oc(N)nc3c2)c2c(N)ncnc21 [sapanisertib]  0.0077
4. Cc1cc(Nc2ncnc3ccc(NC4=NC(C)(C)CO4)cc23)ccc1Oc1ccn2ncnc2c1 [tucatinib]  0.0106
5. O=C(/C=C/c1cccnc1)NCCCCC1CCN(C(=O)c2ccccc2)CC1 [FK866]  0.062
6. C=CCn1c(=O)c2cnc(Nc3ccc(N4CCN(C)CC4)cc3)nc2n1-c1cccc(C(C)(C)O)n1 [adavosertib]  0.128
7. CS(=O)(=O)c1ccc(C(=O)Nc2ccc(Cl)c(-c3ccccn3)c2)c(Cl)c1 [vismodegib]  0.207
8. C[C@]12CC[C@@H]3c4ccc(O)cc4C[C@@H](CCCCCCCCC[S+]([O-])CCCC(F)(F)C(F)(F)F)[C@H]3[C@@H]1CC[C@@H]2O (stereo partly specified) [fulvestrant]  2.35
9. C[C@H](NC(=O)CCC(F)(F)F)C(=O)N[C@@H]1C(=O)N(CCO)c2ncccc2-c2ccccc21 [crenigacestat]  2.41

same assay, conditions: 100 µM; days in culture: 227

In order of falling “CTG-3D luminescence at 96 h” value:
1. C[C@]12CC[C@@H]3c4ccc(O)cc4C[C@@H](CCCCCCCCC[S+]([O-])CCCC(F)(F)C(F)(F)F)[C@H]3[C@@H]1CC[C@@H]2O (stereo partly specified) [fulvestrant]  4.58
2. C[C@H](NC(=O)CCC(F)(F)F)C(=O)N[C@@H]1C(=O)N(CCO)c2ncccc2-c2ccccc21 [crenigacestat]  3.7
3. CS(=O)(=O)c1ccc(C(=O)Nc2ccc(Cl)c(-c3ccccn3)c2)c(Cl)c1 [vismodegib]  0.447
4. C=CCn1c(=O)c2cnc(Nc3ccc(N4CCN(C)CC4)cc3)nc2n1-c1cccc(C(C)(C)O)n1 [adavosertib]  0.123
5. O=C(/C=C/c1cccnc1)NCCCCC1CCN(C(=O)c2ccccc2)CC1 [FK866]  0.0754
6. CC(C)n1nc(-c2ccc3oc(N)nc3c2)c2c(N)ncnc21 [sapanisertib]  0.0372
7. Cc1cc(Nc2ncnc3ccc(NC4=NC(C)(C)CO4)cc23)ccc1Oc1ccn2ncnc2c1 [tucatinib]  0.0281
8. O=C(c1ccc(F)c(F)c1Nc1ccc(I)cc1F)N1CC(O)([C@@H]2CCCCN2)C1 [cobimetinib]  -0.0104
9. COc1cc2c(Oc3ccc4[nH]c(C)cc4c3F)ncnc2cc1OCCCN1CCCC1 [cediranib]  -0.211

same assay, conditions: 625 fM; days in culture: 62

In order of rising “CTG-3D luminescence at 96 h” value:
1. C[C@]12CC[C@@H]3c4ccc(O)cc4C[C@@H](CCCCCCCCC[S+]([O-])CCCC(F)(F)C(F)(F)F)[C@H]3[C@@H]1CC[C@@H]2O (stereo partly specified) [fulvestrant]  2.86
2. C=CCn1c(=O)c2cnc(Nc3ccc(N4CCN(C)CC4)cc3)nc2n1-c1cccc(C(C)(C)O)n1 [adavosertib]  2.86
3. Cc1cc(Nc2ncnc3ccc(NC4=NC(C)(C)CO4)cc23)ccc1Oc1ccn2ncnc2c1 [tucatinib]  2.91
4. C[C@H](NC(=O)CCC(F)(F)F)C(=O)N[C@@H]1C(=O)N(CCO)c2ncccc2-c2ccccc21 [crenigacestat]  2.91
5. COc1cc2c(Oc3ccc4[nH]c(C)cc4c3F)ncnc2cc1OCCCN1CCCC1 [cediranib]  2.92
6. CC(C)n1nc(-c2ccc3oc(N)nc3c2)c2c(N)ncnc21 [sapanisertib]  2.93
7. CS(=O)(=O)c1ccc(C(=O)Nc2ccc(Cl)c(-c3ccccn3)c2)c(Cl)c1 [vismodegib]  3.01
8. O=C(c1ccc(F)c(F)c1Nc1ccc(I)cc1F)N1CC(O)([C@@H]2CCCCN2)C1 [cobimetinib]  3.02
9. O=C(/C=C/c1cccnc1)NCCCCC1CCN(C(=O)c2ccccc2)CC1 [FK866]  3.07

same assay, conditions: 625 fM; days in culture: 82

In order of falling “CTG-3D luminescence at 96 h” value:
1. COc1cc2c(Oc3ccc4[nH]c(C)cc4c3F)ncnc2cc1OCCCN1CCCC1 [cediranib]  3.14
2. O=C(/C=C/c1cccnc1)NCCCCC1CCN(C(=O)c2ccccc2)CC1 [FK866]  3.06
3. O=C(c1ccc(F)c(F)c1Nc1ccc(I)cc1F)N1CC(O)([C@@H]2CCCCN2)C1 [cobimetinib]  3.03
4. CC(C)n1nc(-c2ccc3oc(N)nc3c2)c2c(N)ncnc21 [sapanisertib]  2.93
5. CS(=O)(=O)c1ccc(C(=O)Nc2ccc(Cl)c(-c3ccccn3)c2)c(Cl)c1 [vismodegib]  2.86
6. C[C@H](NC(=O)CCC(F)(F)F)C(=O)N[C@@H]1C(=O)N(CCO)c2ncccc2-c2ccccc21 [crenigacestat]  2.76
7. C=CCn1c(=O)c2cnc(Nc3ccc(N4CCN(C)CC4)cc3)nc2n1-c1cccc(C(C)(C)O)n1 [adavosertib]  2.69
8. Cc1cc(Nc2ncnc3ccc(NC4=NC(C)(C)CO4)cc23)ccc1Oc1ccn2ncnc2c1 [tucatinib]  2.63
9. C[C@]12CC[C@@H]3c4ccc(O)cc4C[C@@H](CCCCCCCCC[S+]([O-])CCCC(F)(F)C(F)(F)F)[C@H]3[C@@H]1CC[C@@H]2O (stereo partly specified) [fulvestrant]  2.6
